In brackets after ≈: the same amount, converted by molar mass. Activity calls are given as the source filed them. The rule behind the calls is not given here.
Assays:
[1] = system: Candida albicans; assay: Antifungal activity against Candida albicans NIH B311 after 24 hrs by agar well diffusion method; type: functional
[2] = system: Cryptococcus neoformans; assay: Antifungal activity against Cryptococcus neoformans ATCC 52657 after 48 hrs by agar well diffusion method; type: functional; details: ATCC 52657, 48 h
[3] = system: Cryptococcus neoformans; assay: Antifungal activity against Cryptococcus neoformans infected in Swiss ICR mouse assessed as lethality at 50 mg/kg, ip administered 24 hrs post infection for 12 days; type: functional, organism-based; design: dose 50 mg/kg

Structure (SMILES)	Activity [1]	MIC [2] [µg/mL]	Activity [3]	MIC [1] [µg/mL]
OC[C@H]1O[C@@H](Oc2c3c4c(ccnc4c4ccccc24)C=CN3)[C@H](O)[C@@H](O)[C@@H]1O	inactive	0.78 (≈ 1.97 µM)	inactive	
O=C1c2ccccc2-c2nccc3ccnc1c23 [SAMPANGINE]		0.2 (≈ 0.861 µM)		3.12 (≈ 13.4 µM)
CO[C@H]1[C@H](O)[C@@H](O)[C@H](Oc2c3c4c(ccnc4c4ccccc24)C=CN3)O[C@@H]1CO	inactive	0.2 (≈ 0.487 µM)		

From ChEMBL document CHEMBL1144070, “Microbial transformation of sampangine” (1999)
